# Assay results taken from publication PMC9919490, “Synthesis and Biological Evaluation of Novel Dispiro-Indolinones with Anticancer Activity” (Molecules, 2023).
# Assays:
# PC3 cells = assay: MTT cytotoxicity assay, PC3 (p53 neg); assay type: cell-based; conditions: Homo sapiens, PC-3, 48 h
# LNCaP cells = assay: MTT cytotoxicity assay, LNCaP (p53 pos); assay type: cell-based; conditions: Homo sapiens, LNCaP, 48 h
structure (smiles),measurement,setting,value
CCOc1ccc(N2C(=O)C3(NC2=S)C(c2ccc(Cl)cc2)CN(C)C32C(=O)Nc3ccc(Br)cc32)cc1 (centres unmarked) [Compound 29],IC50,PC3 cells,9.8 ± 3.7 µM
same,IC50,LNCaP cells,3.5 ± 1.9 µM
